In ChEMBL document CHEMBL3885881, “DrugMatrix”:

Organism: Rattus norvegicus
Experiment: DrugMatrix - Regimen: Daily Repeat
Type: toxicity, organism-based, Sprague-Dawley
Set-up: regimen Daily Repeat, gender Male, age 6-8 weeks
Details: in vivo, po, route oral GAVAGE, vehicle 100 % WATER; for ABSOLUTE BASOPHIL / ABSOLUTE EOSINOPHIL / ABSOLUTE LYMPHOCYTE / ABSOLUTE MONOCYTE / ABSOLUTE SEGMENTED NEUTROPHIL / BASOPHIL / EOSINOPHIL / ERYTHROCYTE COUNT / HEMATOCRIT / HEMOGLOBIN / LEUKOCYTE COUNT / LYMPHOCYTE / MEAN CORPUSCULAR HEMOGLOBIN / MEAN CORPUSCULAR HEMOGLOBIN CONCENTRATION / MEAN CORPUSCULAR VOLUME / MONOCYTE / NEUTROPHIL / NUCLEATED RED BLOOD CELLS / PLATELET COUNT: tissue Blood; for ALANINE AMINOTRANSFERASE / ALBUMIN / ALKALINE PHOSPHATASE / ASPARTATE AMINOTRANSFERASE / BLOOD UREA NITROGEN / CARBON DIOXIDE / CHLORIDE / CHOLESTEROL / CREATINE PHOSPHOKINASE / CREATININE / GLUCOSE / LACTATE DEHYDROGENASE / LIPASE / PHOSPHORUS / POTASSIUM / SODIUM / TOTAL BILIRUBIN / TOTAL PROTEIN / URIC ACID: tissue Plasma
[1] = 0 mg/kg, 72 h, dose level Control, time 3 day
[2] = 0 mg/kg, 120 h, dose level Control, time 5 day
[3] = 120 mg/kg, 72 h, dose level Low, time 3 day

Compound: CCN(CC)CCNC(=O)c1cc(S(C)(=O)=O)ccc1OC [TIAPRIDE]
- ABSOLUTE BASOPHIL [1]: 0 CELLS/uL
- ABSOLUTE EOSINOPHIL [1]: 151.33 CELLS/uL
- ABSOLUTE LYMPHOCYTE [1]: 10599.5 CELLS/uL
- ABSOLUTE MONOCYTE [1]: 109.5 CELLS/uL
- ABSOLUTE SEGMENTED NEUTROPHIL [1]: 1139.67 CELLS/uL
- BASOPHIL [1]: 0%
- EOSINOPHIL [1]: 0.83%
- ERYTHROCYTE COUNT [1]: 5.54 x10E6/uL
- HEMATOCRIT [1]: 35.35%
- HEMOGLOBIN [1]: 13.22 G/DL
- LEUKOCYTE COUNT [1]: 12 x10E3/uL
- LYMPHOCYTE [1]: 89%
- MEAN CORPUSCULAR HEMOGLOBIN [1]: 23.88 pg
- MEAN CORPUSCULAR HEMOGLOBIN CONCENTRATION [1]: 37.4 G/DL
- MEAN CORPUSCULAR VOLUME [1]: 63.85 fL
- MONOCYTE [1]: 1%
- NEUTROPHIL [1]: 9.17%
- NUCLEATED RED BLOOD CELLS [1]: 0 /100WBC
- PLATELET COUNT [1]: 1333.33 x10E3/uL
- ALANINE AMINOTRANSFERASE [1]: 53.17 u/L
- ALBUMIN [1]: 4.32 G/DL
- ALKALINE PHOSPHATASE [1]: 404.33 u/L
- ASPARTATE AMINOTRANSFERASE [1]: 83.17 u/L
- BLOOD UREA NITROGEN [1]: 15.67 mg/dL
- CARBON DIOXIDE [1]: 27.33 mmol/L
- CHLORIDE [1]: 101.83 MEQ/L
- CHOLESTEROL [1]: 68.67 mg/dL
- CREATINE PHOSPHOKINASE [1]: 276.17 u/L
- CREATININE [1]: 0.18 mg/dL
- GLUCOSE [1]: 163.5 mg/dL
- LACTATE DEHYDROGENASE [1]: 144.67 u/L
- LIPASE [1]: 8.83 u/L
- PHOSPHORUS [1]: 11.72 mg/dL
- POTASSIUM [1]: 5.99 MEQ/L
- SODIUM [1]: 143.57 MEQ/L
- TOTAL BILIRUBIN [1]: 0.2 mg/dL
- TOTAL PROTEIN [1]: 6.1 G/DL
- URIC ACID [1]: 1.38 mg/dL
- ABSOLUTE BASOPHIL [2]: 0 CELLS/uL
- ABSOLUTE EOSINOPHIL [2]: 248.67 CELLS/uL
- ABSOLUTE LYMPHOCYTE [2]: 12977.83 CELLS/uL
- ABSOLUTE MONOCYTE [2]: 19.67 CELLS/uL
- ABSOLUTE SEGMENTED NEUTROPHIL [2]: 1137.17 CELLS/uL
- BASOPHIL [2]: 0%
- EOSINOPHIL [2]: 1.67%
- ERYTHROCYTE COUNT [2]: 5.82 x10E6/uL
- HEMATOCRIT [2]: 36.35%
- HEMOGLOBIN [2]: 13.58 G/DL
- LEUKOCYTE COUNT [2]: 14.38 x10E3/uL
- LYMPHOCYTE [2]: 90.5%
- MEAN CORPUSCULAR HEMOGLOBIN [2]: 23.32 pg
- MEAN CORPUSCULAR HEMOGLOBIN CONCENTRATION [2]: 37.42 G/DL
- MEAN CORPUSCULAR VOLUME [2]: 62.42 fL
- MONOCYTE [2]: 0.17%
- NEUTROPHIL [2]: 7.67%
- NUCLEATED RED BLOOD CELLS [2]: 0 /100WBC
- PLATELET COUNT [2]: 1337.67 x10E3/uL
- ALANINE AMINOTRANSFERASE [2]: 48.5 u/L
- ALBUMIN [2]: 4.32 G/DL
- ALKALINE PHOSPHATASE [2]: 354.33 u/L
- ASPARTATE AMINOTRANSFERASE [2]: 80 u/L
- BLOOD UREA NITROGEN [2]: 16 mg/dL
- CARBON DIOXIDE [2]: 27.33 mmol/L
- CHLORIDE [2]: 100.33 MEQ/L
- CHOLESTEROL [2]: 68 mg/dL
- CREATINE PHOSPHOKINASE [2]: 325.17 u/L
- CREATININE [2]: 0.23 mg/dL
- GLUCOSE [2]: 172 mg/dL
- LACTATE DEHYDROGENASE [2]: 254.83 u/L
- LIPASE [2]: 8.33 u/L
- PHOSPHORUS [2]: 12.17 mg/dL
- POTASSIUM [2]: 6.28 MEQ/L
- SODIUM [2]: 143.57 MEQ/L
- TOTAL BILIRUBIN [2]: 0.18 mg/dL
- TOTAL PROTEIN [2]: 6.12 G/DL
- URIC ACID [2]: 1.78 mg/dL
- ABSOLUTE BASOPHIL [3]: 0 CELLS/uL
- ABSOLUTE EOSINOPHIL [3]: 161.33 CELLS/uL
- ABSOLUTE LYMPHOCYTE [3]: 8742.33 CELLS/uL
- ABSOLUTE MONOCYTE [3]: 34.33 CELLS/uL
- ABSOLUTE SEGMENTED NEUTROPHIL [3]: 962 CELLS/uL
- BASOPHIL [3]: 0%
- EOSINOPHIL [3]: 1.33%
- ERYTHROCYTE COUNT [3]: 5.57 x10E6/uL
- HEMATOCRIT [3]: 35.07%
- HEMOGLOBIN [3]: 13.23 G/DL
- LEUKOCYTE COUNT [3]: 9.9 x10E3/uL
- LYMPHOCYTE [3]: 88.33%
- MEAN CORPUSCULAR HEMOGLOBIN [3]: 23.77 pg
- MEAN CORPUSCULAR HEMOGLOBIN CONCENTRATION [3]: 37.7 G/DL
- MEAN CORPUSCULAR VOLUME [3]: 63.03 fL
- MONOCYTE [3]: 0.33%
- NEUTROPHIL [3]: 10%
- NUCLEATED RED BLOOD CELLS [3]: 0 /100WBC
- PLATELET COUNT [3]: 1263 x10E3/uL
- ALANINE AMINOTRANSFERASE [3]: 47.67 u/L
- ALBUMIN [3]: 4.13 G/DL
- ALKALINE PHOSPHATASE [3]: 345 u/L
- ASPARTATE AMINOTRANSFERASE [3]: 82.33 u/L
- BLOOD UREA NITROGEN [3]: 15.33 mg/dL
- CARBON DIOXIDE [3]: 27.33 mmol/L
- CHLORIDE [3]: 103 MEQ/L
- CHOLESTEROL [3]: 60.67 mg/dL
- CREATINE PHOSPHOKINASE [3]: 172.67 u/L
- CREATININE [3]: 0.19 mg/dL
- GLUCOSE [3]: 170.33 mg/dL
- LACTATE DEHYDROGENASE [3]: 114 u/L
- LIPASE [3]: 8 u/L
- PHOSPHORUS [3]: 12.83 mg/dL
- POTASSIUM [3]: 5.99 MEQ/L
- SODIUM [3]: 145.83 MEQ/L
- TOTAL BILIRUBIN [3]: 0.2 mg/dL
- TOTAL PROTEIN [3]: 6.17 G/DL
- URIC ACID [3]: 1.33 mg/dL
